Reference: article PMC11489721 (Communications Chemistry, 2024)
Where a name gives a salt, the structure may show the parent alone. Read-outs that look alike come from different tables or passages of the source.

Experiments:
[1] = cited from earlier work
bovine taste bud cells = conditions: cited from earlier work
[2] = molecular target: T1, human T1R2/T1R3 heterodimer sweet taste receptors (Homo sapiens, UniProt Q7RTX0+Q8TE23); experiment: FLOWER label-free binding to stabilized receptor on microtoroid
T1 sequence (Q8TE23 20-839): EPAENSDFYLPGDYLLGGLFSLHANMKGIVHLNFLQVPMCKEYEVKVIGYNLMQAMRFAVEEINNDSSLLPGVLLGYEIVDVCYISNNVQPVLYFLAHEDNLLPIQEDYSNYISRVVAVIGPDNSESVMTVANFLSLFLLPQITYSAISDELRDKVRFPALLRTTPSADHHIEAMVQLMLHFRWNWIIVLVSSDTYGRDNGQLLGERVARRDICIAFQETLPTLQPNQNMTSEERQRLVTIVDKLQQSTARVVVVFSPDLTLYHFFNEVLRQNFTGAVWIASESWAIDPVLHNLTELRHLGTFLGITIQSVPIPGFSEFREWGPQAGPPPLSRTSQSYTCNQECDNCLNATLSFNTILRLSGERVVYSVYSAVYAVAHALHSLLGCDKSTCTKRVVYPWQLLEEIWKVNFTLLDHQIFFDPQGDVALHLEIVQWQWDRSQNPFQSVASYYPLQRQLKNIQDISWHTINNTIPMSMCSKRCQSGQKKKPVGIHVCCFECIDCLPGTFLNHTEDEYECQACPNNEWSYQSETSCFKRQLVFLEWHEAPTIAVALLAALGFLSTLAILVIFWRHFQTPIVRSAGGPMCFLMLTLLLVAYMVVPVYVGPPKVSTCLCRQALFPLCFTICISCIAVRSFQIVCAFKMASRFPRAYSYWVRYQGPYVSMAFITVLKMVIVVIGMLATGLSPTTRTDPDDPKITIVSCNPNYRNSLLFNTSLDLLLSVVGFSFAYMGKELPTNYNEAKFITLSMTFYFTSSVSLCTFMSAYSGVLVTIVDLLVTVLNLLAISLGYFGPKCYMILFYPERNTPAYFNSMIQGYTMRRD
T1 sequence (Q7RTX0 21-852): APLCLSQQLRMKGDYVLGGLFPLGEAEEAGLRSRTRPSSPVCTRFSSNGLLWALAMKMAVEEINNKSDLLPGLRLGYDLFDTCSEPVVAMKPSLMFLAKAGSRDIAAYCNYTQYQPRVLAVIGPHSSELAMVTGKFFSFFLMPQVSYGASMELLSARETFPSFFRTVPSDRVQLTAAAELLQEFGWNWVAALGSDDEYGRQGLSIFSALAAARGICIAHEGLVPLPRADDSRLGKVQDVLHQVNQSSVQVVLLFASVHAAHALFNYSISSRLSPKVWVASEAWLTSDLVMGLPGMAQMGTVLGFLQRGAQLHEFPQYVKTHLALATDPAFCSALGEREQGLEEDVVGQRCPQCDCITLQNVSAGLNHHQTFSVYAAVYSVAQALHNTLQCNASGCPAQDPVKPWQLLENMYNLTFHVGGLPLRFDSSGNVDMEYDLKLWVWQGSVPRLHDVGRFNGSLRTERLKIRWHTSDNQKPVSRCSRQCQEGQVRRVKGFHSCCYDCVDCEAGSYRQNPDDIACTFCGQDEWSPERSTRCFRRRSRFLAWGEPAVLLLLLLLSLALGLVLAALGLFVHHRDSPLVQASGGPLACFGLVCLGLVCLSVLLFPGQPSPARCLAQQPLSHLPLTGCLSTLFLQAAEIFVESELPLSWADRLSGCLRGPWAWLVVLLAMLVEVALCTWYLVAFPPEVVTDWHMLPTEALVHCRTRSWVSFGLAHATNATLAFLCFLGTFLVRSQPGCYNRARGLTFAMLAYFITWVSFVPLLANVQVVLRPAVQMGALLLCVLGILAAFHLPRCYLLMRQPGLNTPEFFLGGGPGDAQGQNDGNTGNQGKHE

[3] = molecular target: human T1R2/T1R3 sweet taste receptor; conditions: HEK293 stably expressing T1R2/T1R3, FLIPR calcium mobilization; cited from earlier work
[4] = molecular target: human sweet taste receptor; conditions: FLIPR assay; cited from earlier work
[5] = molecular target: human sweet taste receptor; conditions: DMR assay; cited from earlier work
[6] = molecular target: T2, heterodimeric receptor (T1R2/T1R3), TMD2 site (Homo sapiens, UniProt Q7RTX0+Q8TE23); experiment: Kinetic binding of [3H]-Perillartine, taste bud cell membranes
T2 sequence (Q8TE23 20-839): T1 sequence (Q8TE23 20-839)
T2 sequence (Q7RTX0 21-852): T1 sequence (Q7RTX0 21-852)

[7] = molecular target: T3, heterodimeric receptor (T1R2/T1R3), TMD2 binding site (Homo sapiens, UniProt Q7RTX0+Q8TE23); experiment: Competition binding with [3H]-Perillartine as radioligand; conditions: for Ki (mM): radiolabeled ligand perillartine, TMD2 binding, Table 6; for Competitive inhibition with perillartine: radioligand [3H]-Perillartine
T3 sequence (Q8TE23 20-839): T1 sequence (Q8TE23 20-839)
T3 sequence (Q7RTX0 21-852): T1 sequence (Q7RTX0 21-852)

[8] = molecular target: T4, heterodimeric receptor (T1R2/T1R3), presumed VFD2 binding site (Homo sapiens, UniProt Q7RTX0+Q8TE23); experiment: Competition binding with [3H]-Rebaudioside B as radioligand; conditions: for Competitive inhibition with RebB: radioligand [3H]-Rebaudioside B; for Ki (mM): radiolabeled ligand RebB, VFD2 binding, Table 5
T4 sequence (Q8TE23 20-839): T1 sequence (Q8TE23 20-839)
T4 sequence (Q7RTX0 21-852): T1 sequence (Q7RTX0 21-852)

[9] = tested on: human T1R2/T1R3 heterodimers; conditions: transiently transfected, fluorescent calcium biosensor; cited from earlier work
human T1R2 = conditions: human T1R2, intrinsic fluorescence; cited from earlier work
[10] = molecular target: T5, heterodimeric receptor (T1R2/T1R3), TMD3 binding site (Homo sapiens, UniProt Q7RTX0+Q8TE23); experiment: Competition binding with [3H]-lactisole as radioligand; conditions: for Competitive inhibition with lactisole: radioligand [3H]-lactisole
T5 sequence (Q8TE23 20-839): T1 sequence (Q8TE23 20-839)
T5 sequence (Q7RTX0 21-852): T1 sequence (Q7RTX0 21-852)

[11] = molecular target: T6, heterodimeric receptor (T1R2/T1R3), presumed VFD2 site (Homo sapiens, UniProt Q7RTX0+Q8TE23); experiment: Kinetic binding of [3H]-Rebaudioside B, taste bud cell membranes
T6 sequence (Q8TE23 20-839): T1 sequence (Q8TE23 20-839)
T6 sequence (Q7RTX0 21-852): T1 sequence (Q7RTX0 21-852)

[12] = molecular target: T7, heterodimeric receptor (T1R2/T1R3) (Homo sapiens, UniProt Q7RTX0+Q8TE23); experiment: Effect of GTP and GDP on radioligand binding; conditions: for Inhibition of [3H]-Lactisole binding: radioligand [3H]-lactisole
T7 sequence (Q8TE23 20-839): T1 sequence (Q8TE23 20-839)
T7 sequence (Q7RTX0 21-852): T1 sequence (Q7RTX0 21-852)

[13] = molecular target: extracellular amino-terminal domain (ATD) of human T1R2; conditions: circular dichroism; cited from earlier work
[14] = molecular target: T8, heterodimeric receptor (T1R2/T1R3), VFD2 and VFD3 (Homo sapiens, UniProt Q7RTX0+Q8TE23); experiment: Kinetic binding of [14C]-sucrose, taste bud cell membranes
T8 sequence (Q8TE23 20-839): T1 sequence (Q8TE23 20-839)
T8 sequence (Q7RTX0 21-852): T1 sequence (Q7RTX0 21-852)

[15] = read-out: binding constant Kd, TMD3 open (+C20), 10 µM C20
[16] = read-out: binding constant Kd, TMD3 open (No C20)
[17] = from kinetic binding, ratio koff/kon

Compound: Rebaudioside B [RebB]
- Sweetness at 300 ppm [1]: 5.20

Compound: OC[C@H]1O[C@@](CO)(O[C@H]2O[C@H](CO)[C@@H](O)[C@H](O)[C@H]2O)[C@@H](O)[C@@H]1O [sucrose]
- Kd (bovine taste bud cells): 1100 µM

Compound: C=C1C[C@@]23CC[C@H]4[C@@](C)(CCC[C@@]4(C)C(=O)O[C@@H]4O[C@H](CO)[C@@H](O)[C@H](O)[C@H]4O[C@@H]4O[C@H](CO)[C@@H](O)[C@H](O)[C@H]4O)[C@@H]2CC[C@]1(O[C@@H]1O[C@H](CO)[C@@H](O)[C@H](O[C@@H]2O[C@H](CO)[C@@H](O)[C@H](O)[C@H]2O)[C@H]1O[C@@H]1O[C@H](CO)[C@@H](O)[C@H](O)[C@H]1O)C3 [RebD, Rebaudioside D]
- Sweetness at 300 ppm [1]: 6.15
- Hill slope nH ([2]; TMD3 open (No C20)): 0.22
- Kd [2, 15]: 0.046 nM
- Kd [2, 16]: 2.8 nM

Compound: C=C1C[C@@]23CC[C@H]4[C@@](C)(CCC[C@@]4(C)C(=O)O[C@@H]4O[C@H](CO)[C@@H](O)[C@H](O)[C@H]4O)[C@@H]2CC[C@]1(O[C@@H]1O[C@H](CO)[C@@H](O)[C@H](O[C@@H]2O[C@H](CO)[C@@H](O)[C@H](O)[C@H]2O)[C@H]1O[C@@H]1O[C@H](CO)[C@@H](O)[C@H](O)[C@H]1O)C3 [RebA]
- EC50 [3]: 14.4 µM
- Sweetness at 300 ppm [1]: 5.90
- EC50 [4]: 29 µM
- EC50 [5]: 57 µM

Compound: [^3H]-Perillartine [[^3H]-Perrilartine]
- kon ([6]; [3H]-Perillartine radioligand): 3071.47 M⁻¹ s⁻¹
- koff ([6]; dissociation by excess cold Perillartine at 60 min): 0.008895 s⁻¹
- Kd [6, 17]: 2.9 µM

Compound: N=C(N)NC(=O)c1nc(Cl)c(N)nc1N [Amiloride, amiloride HCL]
- Ki (mM) [7]: Ambiguous
- Competitive inhibition with perillartine [7]: did not show inhibition
- Ki [8]: 1350 µM
- Competitive inhibition with RebB [8]: positive inhibition

Compound: C=C(C)[C@@H]1CC=C(/C=N/O)CC1 [Perillartine]
- EC50 [3]: 1.45 µM
- EC50 [9]: 2.54 µM
- Kd (human T1R2): 373 µM

Compound: CC(C)Oc1ccc(NC(=S)NCc2ccc[nH]2)cc1 [S819, 1-((1H-pyrrol-2-yl)methyl)-3-(4-isopropoxyphenyl)thiourea]
- Competitive inhibition with lactisole [10]: do not compete
- EC50 [4]: 0.07 µM
- Ki (mM) [7]: Ambiguous
- Competitive inhibition with perillartine [7]: did not show inhibition
- EC50 [5]: 0.7 µM
- Ki (mM) [8]: Ambiguous
- Competitive inhibition with RebB [8]: did not show strong inhibition

Compound: C=C1C[C@@]23CC[C@H]4[C@@](C)(CCC[C@@]4(C)C(=O)O[C@@H]4O[C@H](CO)[C@@H](O)[C@H](O)[C@H]4O)[C@@H]2CC[C@]1(O[C@@H]1O[C@H](CO)[C@@H](O)[C@H](O)[C@H]1O)C3 [Rubu, Rubusoside]
- Sweetness at 300 ppm [1]: 3.87
- Hill slope nH ([2]; TMD2 open (No C20)): 0.36
- Hill slope nH ([2]; TMD3 open (No C20)): 0.20
- Kd ([2]; binding constant Kd, TMD2 open (No C20)): 2400 nM
- Kd ([2]; binding constant Kd, TMD3 open (+C20), 10 µM C20): 26 nM
- Kd ([2]; binding constant Kd, TMD3 open (No C20)): 3000 nM

Compound: [^3H]-Rebaudioside B
- kon ([11]; [3H]-Rebaudioside B radioligand, room temperature): 1.53 M⁻¹ s⁻¹
- koff ([11]; dissociation by 1000-fold excess cold Rebaudioside B at 60 min): 0.008868 s⁻¹
- Kd [11, 17]: 5800 µM

Compound: OC[C@H]1OC(O)[C@H](O)[C@@H](O)[C@@H]1O (some centres unmarked) [glucose]
- Kd (bovine taste bud cells): 3400 µM

Compound: Nc1nc2c(ncn2[C@@H]2O[C@H](COP(=O)(O)OP(=O)(O)OP(=O)(O)O)[C@@H](O)[C@H]2O)c(=O)[nH]1 [GTP, guanosine triphosphate]
- IC50 ([12]; IC50, inhibition of Rebaudioside B binding, radioligand [3H]-Rebaudioside B): 9220 µM
- IC50 ([12]; IC50, inhibition of perillartine binding, radioligand [3H]-Perillartine): 13200 µM
- Inhibition of [3H]-Lactisole binding [12]: No inhibition

Compound: C=C1C[C@@]23CC[C@H]4[C@@](C)(CCC[C@@]4(C)C(=O)O[C@@H]4O[C@H](CO)[C@@H](O)[C@H](O[C@@H]5O[C@H](CO)[C@@H](O)[C@H](O)[C@H]5O)[C@H]4O[C@@H]4O[C@H](CO)[C@@H](O)[C@H](O)[C@H]4O)[C@@H]2CC[C@]1(O[C@@H]1O[C@H](CO)[C@@H](O)[C@H](O[C@@H]2O[C@H](CO)[C@@H](O)[C@H](O)[C@H]2O)[C@H]1O[C@@H]1O[C@H](CO)[C@@H](O)[C@H](O)[C@H]1O)C3 [RebM, Rebaudioside M]
- Ki ([10]; radiolabeled ligand lactisole, TMD3 binding, Table 4): 11800 µM
- Competitive inhibition with lactisole [10]: positive inhibition
- EC50 [3]: 29.5 µM
- Sweetness at 300 ppm [1]: 6.55
- Ki (mM) [7]: Ambiguous
- Ki (mM) [8]: Ambiguous
- Competitive inhibition with RebB [8]: ambiguous binding inhibition
- Hill slope nH ([2]; TMD2 open (+C20)): 0.75
- Hill slope nH ([2]; TMD2 open (No C20)): 0.30
- Hill slope nH ([2]; TMD3 open (No C20)): 0.55
- Kd ([2]; read-out: binding constant Kd, TMD2 open (+C20), 10 µM C20): 0.28 nM
- Kd [2, 15]: 2.6 nM
- Kd [2, 16]: 22 nM

Compound: CC1=CC(=O)NS(=O)(=O)O1 [AceK, Acesulfame K]
- Competitive inhibition with lactisole [10]: do not compete
- EC50 [3]: 125 µM
- EC50 [9]: 213 µM
- Kd [13]: 100 µM
- Kd (human T1R2): 164 µM
- Competitive inhibition with perillartine [7]: high levels of inhibition
- Competitive inhibition with RebB [8]: inhibited

Compound: Nc1nc2c(ncn2[C@@H]2O[C@H](COP(=O)(O)OP(=O)(O)O)[C@@H](O)[C@H]2O)c(=O)[nH]1 [GDP, guanosine diphosphate]
- Inhibition of [3H]-Lactisole binding [12]: No inhibition
- IC50 ([12]; read-out: IC50, inhibition of Rebaudioside B binding, radioligand [3H]-Rebaudioside B): 2150 µM

Compound: OC[C@H]1O[C@@](CO)(O[C@H]2O[C@H](CO)[C@@H](O)[C@H](O)[C@H]2O)[C@@H](O)[C@@H]1O [[^14C]-sucrose, [^14C]-Sucrose]
- kon ([14]; [14C]-sucrose radioligand): 0.251 M⁻¹ s⁻¹
- koff ([14]; dissociation by excess cold sucrose at 60 min): 0.003105 s⁻¹
- Kd [14, 17]: 12300 µM
